Experimental data published in US7691858B2, “Kinase inhibitors and methods of use thereof” (TargeGen, Inc., priority 2006, dated 2010).

What was measured:
[1] = test system: VE-cadherin phosphorylation; assay: VEGF-induced VE-cadherin phosphorylation in EC (Western blot); format: cell-based; conditions: 10 uM Compound I, EC with VEGF
Method: FIG. 3. Inhibition of cell proliferation and signaling. (a) EC were cultured in the presence of vehicle (DMSO) or PI3K inhibitors (all at 10 μM); cell proliferation was assessed either 24 (open bar), 48 (grey bar), or 72 h (black bar) later.
Western blots: Cell cultures were rinsed twice with PBS and then lysed using RIPA buffer (100 mM Tris, 150 mM NaCl, 2 mM CaCl2, 1% deoxycholic acid, 1% Triton X-100, 0.1% SDS, pH 7.5) containing PMSF (2 mM), NaF (500 mM), aprotinin (10 μg/ml), leupeptin (10 μg/ml) and vanadate (1 mM). Tissue samples were placed in ice-cold RIPA buffer and processed to lysates using a FastPrep homogenizer (QBiogene, Carlsbad, Calif.). Lysates were centrifuged at 15,000×g followed by assay for total protein using the bicinchoninic acid method (Pierce Biotechnology, Rockford, Ill.), then loaded at equal protein concentration onto gels for SDS-PAGE electrophoresis and Western blotting. For phosphorylated VE-cadherin detection blots were probed with primary antibody (Santa Cruz Biotechnology, Santa Cruz, Calif.) followed by a chemiluminescent detection system (Pierce Biotechnology). The same techniques were used to detect both phosphorylated and total ERK and Akt, except that primary antibodies were supplied by Cell Signaling Technology (Beverly, Mass.) and BD Biosciences (San Jose, Calif.), respectively.

MEK1 = target: T1, MEK1 (Homo sapiens, UniProt Q02750); assay: Kinase panel screen; format: biochemical; conditions: Compound I and ATP 10 μM
T1 construct: purchased Upstate USA or Invitrogen (commercial screening service)

EphB4 = target: T2, EphB4 (Homo sapiens, UniProt P54760); assay: Kinase panel screen; format: biochemical; conditions: Compound I and ATP 10 μM
T2 construct: purchased Upstate USA or Invitrogen (commercial screening service)

ALK4 = target: T3, ALK4 (Homo sapiens, UniProt P36896); assay: Kinase panel screen; format: biochemical; conditions: Compound I and ATP 10 μM
T3 construct: purchased Upstate USA or Invitrogen (commercial screening service)

PRAK = target: T4, PRAK (Homo sapiens, UniProt Q8IW41); assay: Kinase panel screen; format: biochemical; conditions: Compound I and ATP 10 μM
T4 construct: purchased Upstate USA or Invitrogen (contract screening service)
T4 sequence (Q8IW41 whole entry): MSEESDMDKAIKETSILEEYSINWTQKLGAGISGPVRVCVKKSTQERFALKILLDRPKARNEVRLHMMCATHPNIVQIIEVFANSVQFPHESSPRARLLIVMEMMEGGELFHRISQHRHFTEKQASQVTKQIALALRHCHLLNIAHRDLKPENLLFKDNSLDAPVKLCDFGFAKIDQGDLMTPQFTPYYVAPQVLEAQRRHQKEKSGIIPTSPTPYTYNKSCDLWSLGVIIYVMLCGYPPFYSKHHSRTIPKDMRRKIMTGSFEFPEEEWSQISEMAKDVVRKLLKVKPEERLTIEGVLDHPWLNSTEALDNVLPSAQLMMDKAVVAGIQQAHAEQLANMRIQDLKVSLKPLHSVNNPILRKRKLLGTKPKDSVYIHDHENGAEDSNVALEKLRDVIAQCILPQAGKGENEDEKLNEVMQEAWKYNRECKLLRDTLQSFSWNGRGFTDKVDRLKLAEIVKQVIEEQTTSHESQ

Arg = target: T5, Arg (Homo sapiens, UniProt P42684); assay: Kinase panel screen; format: biochemical; conditions: Compound I and ATP 10 μM
T5 construct: purchased Upstate USA or Invitrogen (contract screening service)

MKK6 = MKK6 (Homo sapiens, UniProt P52564); assay: Kinase panel screen; format: biochemical; conditions: Compound I and ATP 10 μM
MKK6, sequence (P52564 whole entry): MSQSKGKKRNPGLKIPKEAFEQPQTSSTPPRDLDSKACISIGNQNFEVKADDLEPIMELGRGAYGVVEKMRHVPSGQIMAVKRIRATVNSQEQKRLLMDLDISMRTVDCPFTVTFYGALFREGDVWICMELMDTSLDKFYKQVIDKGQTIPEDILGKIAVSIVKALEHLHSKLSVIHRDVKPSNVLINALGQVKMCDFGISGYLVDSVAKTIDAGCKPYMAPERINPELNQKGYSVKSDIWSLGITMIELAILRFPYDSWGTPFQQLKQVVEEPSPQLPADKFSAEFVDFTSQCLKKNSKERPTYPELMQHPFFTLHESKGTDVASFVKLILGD

PRK2 = target: T6, PRK2 (Homo sapiens, UniProt Q16513); assay: Kinase panel screen; format: biochemical; conditions: Compound I and ATP 10 μM
T6 construct: purchased Upstate USA or Invitrogen (contract screening service)

Aurora-A = target: T7, Aurora-A (Homo sapiens, UniProt O14965); assay: Kinase panel screen; format: biochemical; conditions: Compound I and ATP 10 μM
T7 construct: purchased Upstate USA or Invitrogen (contract screening service)

MSK2 = target: T8, MSK2 (Homo sapiens, UniProt O75676); assay: Kinase panel screen; format: biochemical; conditions: Compound I and ATP 10 μM
T8 construct: purchased Upstate USA or Invitrogen (contract screening service)

Flt3 = target: T9, Flt3 (Homo sapiens, UniProt P36888); assay: Kinase panel screen; format: biochemical; conditions: Compound I and ATP 10 μM
T9 construct: purchased Upstate USA or Invitrogen (commercial screening service)

BRK = target: T10, BRK (Homo sapiens, UniProt Q13882); assay: Kinase panel screen; format: biochemical; conditions: Compound I and ATP 10 μM
T10 construct: purchased Upstate USA or Invitrogen (commercial screening service)

Fms = target: T11, Fms (Homo sapiens, UniProt P07333); assay: Kinase panel screen; format: biochemical; conditions: Compound I and ATP 10 μM
T11 construct: purchased Upstate USA or Invitrogen (commercial screening service)

Ros = target: T12, Ros (Homo sapiens, UniProt P08922); assay: Kinase panel screen; format: biochemical; conditions: Compound I and ATP 10 μM
T12 construct: purchased Upstate USA or Invitrogen (commercial screening service)

BTK = target: T13, BTK (Homo sapiens, UniProt Q06187); assay: Kinase panel screen; format: biochemical; conditions: Compound I and ATP 10 μM
T13 construct: purchased Upstate USA or Invitrogen (commercial screening service)
T13 sequence (Q06187 whole entry): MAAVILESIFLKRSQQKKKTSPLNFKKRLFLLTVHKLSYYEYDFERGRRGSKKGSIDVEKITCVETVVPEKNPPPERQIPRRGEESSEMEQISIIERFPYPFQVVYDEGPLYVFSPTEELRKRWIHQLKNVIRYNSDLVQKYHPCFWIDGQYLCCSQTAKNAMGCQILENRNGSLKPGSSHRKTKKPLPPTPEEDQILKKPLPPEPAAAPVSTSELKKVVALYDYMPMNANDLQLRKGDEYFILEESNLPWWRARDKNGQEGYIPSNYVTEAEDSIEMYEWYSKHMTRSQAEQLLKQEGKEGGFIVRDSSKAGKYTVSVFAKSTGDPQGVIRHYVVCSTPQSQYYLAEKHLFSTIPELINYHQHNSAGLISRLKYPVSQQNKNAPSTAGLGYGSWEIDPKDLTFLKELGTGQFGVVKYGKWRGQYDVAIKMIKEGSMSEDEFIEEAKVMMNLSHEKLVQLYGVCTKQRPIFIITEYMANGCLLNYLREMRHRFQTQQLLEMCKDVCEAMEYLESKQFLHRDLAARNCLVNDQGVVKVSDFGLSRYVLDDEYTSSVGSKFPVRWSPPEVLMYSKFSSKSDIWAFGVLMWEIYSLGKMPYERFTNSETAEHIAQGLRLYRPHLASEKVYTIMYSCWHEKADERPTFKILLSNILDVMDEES

Fyn = target: T14, Fyn (Homo sapiens, UniProt P06241); assay: Kinase panel screen; format: biochemical; conditions: Compound I and ATP 10 μM
T14 construct: purchased Upstate USA or Invitrogen (commercial screening service)
T14 sequence (P06241 whole entry): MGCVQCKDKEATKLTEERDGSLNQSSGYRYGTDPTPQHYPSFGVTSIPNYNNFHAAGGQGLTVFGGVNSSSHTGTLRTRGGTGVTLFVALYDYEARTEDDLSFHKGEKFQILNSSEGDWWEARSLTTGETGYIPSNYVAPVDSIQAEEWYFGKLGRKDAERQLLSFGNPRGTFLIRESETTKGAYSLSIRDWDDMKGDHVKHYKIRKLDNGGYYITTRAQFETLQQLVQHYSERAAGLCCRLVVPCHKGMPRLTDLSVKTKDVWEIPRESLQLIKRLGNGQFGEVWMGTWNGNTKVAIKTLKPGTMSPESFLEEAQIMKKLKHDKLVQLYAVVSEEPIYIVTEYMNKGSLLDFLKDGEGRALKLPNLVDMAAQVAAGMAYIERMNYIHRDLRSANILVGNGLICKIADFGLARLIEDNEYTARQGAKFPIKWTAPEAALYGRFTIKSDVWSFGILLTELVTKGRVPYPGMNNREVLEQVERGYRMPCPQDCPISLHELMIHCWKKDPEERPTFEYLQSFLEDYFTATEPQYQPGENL

Rse = target: T15, Rse (Homo sapiens, UniProt Q06418); assay: Kinase panel screen; format: biochemical; conditions: Compound I and ATP 10 μM
T15 construct: purchased Upstate USA or Invitrogen (commercial screening service)

cKit = target: T16, cKit (Homo sapiens, UniProt P10721); assay: Kinase panel screen; format: biochemical; conditions: Compound I and ATP 10 μM
T16 construct: purchased Upstate USA or Invitrogen (commercial screening service)

GSK3 3 = target: T17, GSK3 3 (Homo sapiens, UniProt P49841); assay: Kinase panel screen; format: biochemical; conditions: Compound I and ATP 10 μM
T17 construct: purchased Upstate USA or Invitrogen (commercial screening service)

CaMKIV = target: T18, CaMKIV (Homo sapiens, UniProt Q16566); assay: Kinase panel screen; format: biochemical; conditions: Compound I and ATP 10 μM
T18 construct: purchased Upstate USA or Invitrogen (commercial screening service)

CDK1 = target: T19, CDK1 (Homo sapiens, UniProt P06493); assay: Kinase panel screen; format: biochemical; conditions: Compound I and ATP 10 μM
T19 construct: purchased Upstate USA or Invitrogen (commercial screening service)

PDGFRa = target: T20, PDGFRa (Homo sapiens, UniProt P16234); assay: Kinase panel screen; format: biochemical; conditions: Compound I and ATP 10 μM
T20 construct: purchased Upstate USA or Invitrogen (commercial screening service)
T20 sequence (P16234 24-1089): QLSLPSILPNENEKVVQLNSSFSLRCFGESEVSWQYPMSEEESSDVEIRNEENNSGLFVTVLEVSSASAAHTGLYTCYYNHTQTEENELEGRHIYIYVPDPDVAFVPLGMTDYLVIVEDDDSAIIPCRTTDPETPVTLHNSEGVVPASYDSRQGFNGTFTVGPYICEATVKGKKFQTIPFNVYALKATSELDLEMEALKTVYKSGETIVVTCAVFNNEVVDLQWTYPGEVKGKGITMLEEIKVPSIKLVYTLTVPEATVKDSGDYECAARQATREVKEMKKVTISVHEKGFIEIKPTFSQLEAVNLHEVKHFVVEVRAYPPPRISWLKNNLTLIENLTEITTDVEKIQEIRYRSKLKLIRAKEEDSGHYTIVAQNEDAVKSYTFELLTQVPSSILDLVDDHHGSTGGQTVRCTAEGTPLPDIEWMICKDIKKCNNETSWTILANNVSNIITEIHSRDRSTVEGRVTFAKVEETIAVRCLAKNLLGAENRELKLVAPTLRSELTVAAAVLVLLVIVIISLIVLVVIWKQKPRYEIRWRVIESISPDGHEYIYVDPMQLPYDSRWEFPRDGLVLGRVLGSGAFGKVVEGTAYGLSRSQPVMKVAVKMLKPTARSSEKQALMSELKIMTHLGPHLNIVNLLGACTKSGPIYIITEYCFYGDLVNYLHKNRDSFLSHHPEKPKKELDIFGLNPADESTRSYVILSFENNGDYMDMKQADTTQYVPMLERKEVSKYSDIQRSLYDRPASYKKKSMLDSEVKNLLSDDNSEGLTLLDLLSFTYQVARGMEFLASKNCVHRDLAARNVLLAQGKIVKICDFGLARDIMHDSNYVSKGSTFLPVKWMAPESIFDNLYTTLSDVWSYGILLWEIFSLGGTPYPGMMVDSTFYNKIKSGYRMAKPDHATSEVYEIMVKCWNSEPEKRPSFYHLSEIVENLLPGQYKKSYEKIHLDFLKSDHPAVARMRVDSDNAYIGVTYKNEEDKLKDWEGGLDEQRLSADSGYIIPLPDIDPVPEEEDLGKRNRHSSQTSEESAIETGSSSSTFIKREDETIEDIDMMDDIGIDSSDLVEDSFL

CDK2 = target: T21, CDK2 (Homo sapiens, UniProt P24941); assay: Kinase panel screen; format: biochemical; conditions: Compound I and ATP 10 μM
T21 construct: purchased Upstate USA or Invitrogen (commercial screening service)

IKKβ = target: T22, IKKβ (Homo sapiens, UniProt O14920); assay: Kinase panel screen; format: biochemical; conditions: Compound I and ATP 10 μM
T22 construct: purchased Upstate USA or Invitrogen (commercial screening service)

Syk = target: T23, Syk (Homo sapiens, UniProt P43405); assay: Kinase panel screen; format: biochemical; conditions: Compound I and ATP 10 μM
T23 construct: purchased Upstate USA or Invitrogen (contract screening service)

CDK6 = target: T24, CDK6 (Homo sapiens, UniProt Q00534); assay: Kinase panel screen; format: biochemical; conditions: Compound I and ATP 10 μM
T24 construct: purchased Upstate USA or Invitrogen (contract screening service)
T24 sequence (Q00534 whole entry): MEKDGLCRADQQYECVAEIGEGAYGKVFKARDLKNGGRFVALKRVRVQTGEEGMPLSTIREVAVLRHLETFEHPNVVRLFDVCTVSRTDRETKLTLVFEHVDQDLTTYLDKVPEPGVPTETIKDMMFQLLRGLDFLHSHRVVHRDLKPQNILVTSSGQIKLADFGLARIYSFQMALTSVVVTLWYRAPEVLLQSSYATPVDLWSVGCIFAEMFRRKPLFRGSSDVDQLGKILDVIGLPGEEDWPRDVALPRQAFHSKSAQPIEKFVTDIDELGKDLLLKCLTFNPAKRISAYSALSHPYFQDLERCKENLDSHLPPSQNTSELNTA
T24 sequence (P30281 whole entry partner): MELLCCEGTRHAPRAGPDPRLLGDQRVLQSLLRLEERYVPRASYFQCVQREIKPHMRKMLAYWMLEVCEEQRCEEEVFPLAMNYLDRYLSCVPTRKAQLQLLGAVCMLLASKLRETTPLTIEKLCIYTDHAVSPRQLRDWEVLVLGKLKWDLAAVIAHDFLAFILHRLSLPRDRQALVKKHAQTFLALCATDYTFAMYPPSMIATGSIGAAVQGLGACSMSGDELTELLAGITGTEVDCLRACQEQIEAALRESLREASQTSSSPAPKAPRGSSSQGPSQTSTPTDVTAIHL

JAK3 = target: T25, JAK3 (Homo sapiens, UniProt P52333); assay: Kinase panel screen; format: biochemical; conditions: Compound I and ATP 10 μM
T25 construct: purchased Upstate USA or Invitrogen (contract screening service)

PKA = PKA (Homo sapiens, UniProt P17612); assay: Kinase panel screen; format: biochemical; conditions: Compound I and ATP 10 μM
PKBa = target: T26, PKBa (Homo sapiens, UniProt P31749); assay: Kinase panel screen; format: biochemical; conditions: read-out: Percent Control, PKBa
T26 construct: purchased Upstate USA or Invitrogen (contract screening service)

JNK2a2 = JNK2a2 (Homo sapiens, UniProt P45984); assay: Kinase panel screen; format: biochemical; conditions: Compound I and ATP 10 μM
JNK2a2, sequence (P45984 whole entry): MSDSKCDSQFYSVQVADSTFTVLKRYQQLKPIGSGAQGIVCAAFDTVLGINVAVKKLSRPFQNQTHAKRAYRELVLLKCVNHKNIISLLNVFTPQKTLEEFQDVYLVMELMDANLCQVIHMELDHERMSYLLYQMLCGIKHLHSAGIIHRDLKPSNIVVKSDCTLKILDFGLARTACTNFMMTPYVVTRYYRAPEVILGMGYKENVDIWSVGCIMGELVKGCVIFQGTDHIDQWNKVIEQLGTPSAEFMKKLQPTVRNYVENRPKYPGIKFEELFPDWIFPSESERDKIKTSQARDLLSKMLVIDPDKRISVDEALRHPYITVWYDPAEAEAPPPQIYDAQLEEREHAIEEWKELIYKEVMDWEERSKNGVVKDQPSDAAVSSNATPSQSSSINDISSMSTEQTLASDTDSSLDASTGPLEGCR

CHK2 = target: T27, CHK2 (Homo sapiens, UniProt O96017); assay: Kinase panel screen; format: biochemical; conditions: Compound I and ATP 10 μM
T27 construct: purchased Upstate USA or Invitrogen (contract screening service)

CK18 = target: T28, CK18 (Homo sapiens, UniProt P48730); assay: Kinase panel screen; format: biochemical; conditions: Compound I and ATP 10 μM
T28 construct: purchased Upstate USA or Invitrogen (contract screening service)
T28 sequence (P48730 whole entry): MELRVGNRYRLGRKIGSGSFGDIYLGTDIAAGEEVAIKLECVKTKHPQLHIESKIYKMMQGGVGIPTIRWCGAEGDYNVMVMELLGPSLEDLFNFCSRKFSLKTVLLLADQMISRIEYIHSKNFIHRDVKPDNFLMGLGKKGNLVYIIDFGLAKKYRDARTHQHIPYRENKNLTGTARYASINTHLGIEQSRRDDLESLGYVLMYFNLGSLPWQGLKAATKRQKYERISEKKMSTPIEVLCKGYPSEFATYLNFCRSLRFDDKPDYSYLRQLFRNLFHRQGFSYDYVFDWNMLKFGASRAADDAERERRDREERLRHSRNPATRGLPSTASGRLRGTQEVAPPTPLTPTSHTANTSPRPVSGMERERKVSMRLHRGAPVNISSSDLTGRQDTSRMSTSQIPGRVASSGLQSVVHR

CK2 = target: T29, CK2 (Homo sapiens, UniProt P68400); assay: Kinase panel screen; format: biochemical; conditions: Compound I at 1 μM and ATP at the apparent Km
T29 construct: purchased Upstate USA or Invitrogen (contract screening service)

CSK = target: T30, CSK (Homo sapiens, UniProt P41240); assay: Kinase panel screen; format: biochemical; conditions: Compound I and ATP 10 μM
T30 construct: purchased Upstate USA or Invitrogen (commercial screening service)
T30 sequence (P41240 whole entry): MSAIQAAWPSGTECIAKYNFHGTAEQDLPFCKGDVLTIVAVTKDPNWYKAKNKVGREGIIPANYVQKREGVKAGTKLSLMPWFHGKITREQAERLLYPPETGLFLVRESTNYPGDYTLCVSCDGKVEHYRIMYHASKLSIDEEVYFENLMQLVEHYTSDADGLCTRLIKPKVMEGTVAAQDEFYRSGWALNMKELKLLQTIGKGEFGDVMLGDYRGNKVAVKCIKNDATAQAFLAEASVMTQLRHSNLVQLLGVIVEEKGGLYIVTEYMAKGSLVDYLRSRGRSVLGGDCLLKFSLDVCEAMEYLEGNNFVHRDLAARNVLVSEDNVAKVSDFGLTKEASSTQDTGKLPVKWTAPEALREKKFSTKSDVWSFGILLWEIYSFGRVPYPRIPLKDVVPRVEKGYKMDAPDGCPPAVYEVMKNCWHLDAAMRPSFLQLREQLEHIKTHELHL

MAPK2 = target: T31, MAPK2 (Homo sapiens, UniProt P28482); assay: Kinase panel screen; format: biochemical; conditions: Compound I and ATP 10 μM
T31 construct: purchased Upstate USA or Invitrogen (commercial screening service)

With Nc1nc(N)c2nc(-c3cccc(O)c3)c(-c3cccc(O)c3)nc2n1 [Compound I, 6,7-bis-(3-hydroxyphenyl)-pteridine-2,4-diamine] the “VEGF signaling culminating in VE-cadherin phosphorylation” value [1] was “interrupt”, the “Percent Control, MEK1” value (MEK1) was 94% and the “Percent Control, EphB4” value (EphB4) was 68%. The “Percent Control, ALK4” value (ALK4) was 91%, the “Percent Control, PRAK” value (PRAK) was 63% and the “Percent Control, Arg” value (Arg) was 43%. The “Percent Control, MKK6” value (MKK6) was 75%, the “Percent Control, PRK2” value (PRK2) was 83% and the “Percent Control, Aurora-A” value (Aurora-A) was 71%. The “Percent Control, MSK2” value (MSK2) was 100%, the “Percent Control, Flt3” value (Flt3) was 80% and the “Percent Control, BRK” value (BRK) was 79%. The “Percent Control, Fms” value (Fms) was 77%, the “Percent Control, Ros” value (Ros) was 90% and the “Percent Control, BTK” value (BTK) was 75%. The “Percent Control, Fyn” value (Fyn) was 54%, the “Percent Control, Rse” value (Rse) was 93% and the “Percent Control, cKit” value (cKit) was 96%. The “Percent Control, GSK3 3” value (GSK3 3) was “p70S6K Percent”, the “Percent Control, CaMKIV” value (CaMKIV) was 87% and the “Percent Control, CDK1” value (CDK1) was 54%. For the same compound, the “Percent Control, PDGFRa” value (PDGFRa) was 86%, the “Percent Control, CDK2 (second entry)” value (CDK2) was 77% and the “Percent Control, IKKβ” value (IKKβ) was 68%. The “Percent Control, Syk” value (Syk) was 76%, the “Percent Control, CDK6” value (CDK6) was 83% and the “Percent Control, JAK3” value (JAK3) was 99%. For the same compound, the “Percent Control, PKA” value (PKA) was 93%, the remaining activity at 10 µM (PKBa) was 62% and the “Percent Control, JNK2a2” value (JNK2a2) was 91%. For the same compound, the “Percent Control, CHK2” value (CHK2) was 75%, the “Percent Control, CK18” value (CK18) was 24% and the “Percent Control, CK2*” value (CK2) was 96%. The “Percent Control, CSK” value (CSK) was 114% and the “Percent Control, MAPK2” value (MAPK2) was 84%.
